Here are results for 11 compounds from patent US20260183273A1, “N,N-dialkyl-4-(2-ethylindan-2-yl)-1H-imidazole-1-carboxamides and related compounds for treatment of neurodegenerative diseases” (priority 2023, published 2026).

Each structure is given as a SMILES string. Where two headings read alike, the source gives them in different places.

A short description of data set [1]: Hydrolysis in plasma (LC-MS). In kind it is in vitro ADME, human. The procedure:
Samples were analysed by LC-MS system, which included Thermo Scientific UltiMate 3000 UHPLC liquid chromatograph and Thermo Scientific Exactive Plus Hybrid Quadrupole-Orbitrap mass spectrometer. The general method used a Waters Acquity UPLC® BEH C18 column (2.1×50 mm, 1.7 μm) and Waters Vanguard UPLC® BEH C18 precolumn (2.1×5 mm, 1.7 μm), thermostated at 40° C., with: injection volume, 1 μL; flow rate, 0.4 mL/min; autosampler temperature: 15° C., detector Full MS-SIM (runtime 1.5-3 min, positive mode, resolution: 70 000; AGC target: 3e^6; maximum IT: 200 ms; scan range: 200-300 m/z); mobile phase A: 0.1% formic acid in MQ water; B: 0.1% formic acid in acetonitrile. Gradient: 0-3 min, 20-75% B; 3-3.1 min 75-95% B; 3.1-4 min 95% B; 4-4.1 min 95-20% B; 4.1-6 min 20% B. Processing: ICIS peak detection algorithm, analyte 6—expected retention time: 1.87 min, 30 s window, mass range 213.14; analyte 7—expected retention time: 2.40 min, 30 s window, mass range 284.18.
To construct the calibration curves, the highest concentration (800 nM) stock solution was prepared in plasma, and serially diluted with plasma to different compound concentrations (8, 20, 40, 60, 80, 200, 400, 600, 800 nM). 50 μL of the respective biological sample were diluted with 200 μL MeOH, vortexed, centrifuged at 4° C. and 5000 rpm for 10 min, the supernatant transferred to HPLC vials with inserts, and analysed. 5 replicates were injected to check the precision, and to ascertain the matrix effects in plasma, 0.5 μL of […] 6 was diluted with 49.5 μL of either plasma or MQ water. […] To monitor the progress of 7 hydrolysis in plasma, 1 vol. % of 7.5 μM 7 stock solution was mixed with plasma, 50 μL aliquots were drawn successively after 1, 5, and 60 min and analysed as described above. In a control experiment, the plasma used was pretreated for 5 min with 1 mM ethopropazine to inhibit BChE, then 7 was added, and the above procedure followed.
(§1) As both 7 and BChE were being depleted, near the final timepoint the reaction rate slowed down considerably. […] 7 is readily hydrolysed in contact with plasma BChE—therefore, after an in vivo application (either parenteral or per os), adrenergic-active moiety 6 should be liberated in the bloodstream, permeate the blood-brain barrier, and reach the site of action in the central nervous system.

The target in data set [2] is hAChE (Homo sapiens, UniProt P22303). Briefly: biochemical. In kind it is biochemical. As for the experimental part: (§2) For time-dependency measurements, the pre-incubation time was varied (1 min, 5 min, 15 min, 30 min or 60 min). The reactions were started by the addition of the substrate (final concentration, 500 μM butyrylthiocholine iodide or acetylthiocholine iodide for hBChE and hAChE, respectively). The final content of DMSO was always 1%. […] The initial velocities in the presence (vi) and absence (vo) of the test compounds were calculated. The inhibitory potencies were expressed as the residual activities, according to RA=(vi−b)/(vo−b), where b is the blank value using phosphate buffer without ChEs. For IC50 determinations, at least seven different concentrations for each compound were used. The IC50 values were obtained by plotting the residual ChE activities against the applied inhibitor concentrations, with the experimental data fitted to a four-parameter logistic function (GraphPad Prism 9.4). Tacrine and donepezil were used as positive controls.

For data set [3], the target named is T1, human α2A adrenoreceptor from CHO cells (Homo sapiens, UniProt P08913).
T1 construct: host or cells: CHO cells
T1 sequence (P08913 1-465): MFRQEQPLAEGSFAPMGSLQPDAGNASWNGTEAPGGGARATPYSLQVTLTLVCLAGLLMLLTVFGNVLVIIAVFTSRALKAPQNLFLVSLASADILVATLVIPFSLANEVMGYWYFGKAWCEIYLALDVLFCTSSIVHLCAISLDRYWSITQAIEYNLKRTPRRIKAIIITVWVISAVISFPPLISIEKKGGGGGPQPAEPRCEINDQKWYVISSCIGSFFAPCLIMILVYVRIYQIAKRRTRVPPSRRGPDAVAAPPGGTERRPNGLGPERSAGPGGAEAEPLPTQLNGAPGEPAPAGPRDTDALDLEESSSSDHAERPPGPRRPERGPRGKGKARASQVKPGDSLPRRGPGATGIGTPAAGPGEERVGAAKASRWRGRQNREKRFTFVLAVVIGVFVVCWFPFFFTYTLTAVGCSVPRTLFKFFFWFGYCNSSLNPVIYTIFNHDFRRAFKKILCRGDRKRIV
Briefly: α2A binding assay (Eurofins), antagonist radioligand [3H]RX821002.
Protocol: In each experiment the respective reference compound (yohimbine) was tested concurrently with the test compounds, and the data were compared with historical values determined at Eurofins. The experiment was accepted in accordance with Eurofins validation Standard Operating Procedure. Inhibition above 50% is considered to represent significant effects of the test compounds. The inhibition constants (Ki) were calculated using the Cheng-Prusoff equation.

Data set [4] can be described thus: Non-enzymatic hydrolysis (aqueous stability). In kind it is physicochemical. Particulars: compared with hydrolysis in plasma. As for the experimental part:
Reactions were monitored using analytical thin-layer chromatography (TLC) on silica gel 60 F254 Al plates. Developed plates were inspected under UV light and, if necessary, visualized with ninhydrin, vanillin/sulfuric acid, Dragendorff's or potassium permanganate stains. Melting points were determined with Büchi 535 Melting Point Apparatus (uncorrected). Nuclear magnetic resonance spectra were recorded on a Bruker Avance III 400 MHz spectrometer at 400 MHz for ^1H, 100 MHz for ^13C, and 376 MHz for ^19F nucleus, respectively, using CDCl3 with TMS as the internal standard as solvent. […] Mass spectra were recorded on Thermo Scientific Q Executive Plus LC-MS/MS spectrometer and IR spectra on Thermo Nicolet FT-IR spectrophotometer. […] The purities of the tested compounds were established to be ≥95%, as determined by UPLC.
as §1

The target in data set [5] is hBChE (Homo sapiens, UniProt P06276). Kind of data set: Inhibition of cholinesterases, method of Ellman (hBChE). In kind it is biochemical. Particulars: for hBChE time-dependency observed: yes/no: pre-incubation time varied (1, 5, 15, 30 or 60 min); for hBChE RA-residual activity: mean ± standard deviation, test concentration not given. As for the experimental part: as §2
A general note: In Ellman's method for cholinesterases, released thiocholine reacts with DTNB.

Setting [6] is: control plasma with 1 mM ethopropazine, nominal 75 nM 7, timepoint 60 min.
[7] abbreviates: hydrolysis of 7 in human plasma, nominal 75 nM, timepoint 1 min.
The mark [8] stands for this setting: hydrolysis of 7 in human plasma, nominal 75 nM, timepoint 5 min.
Where [9] appears, read: hydrolysis of 7 in human plasma, nominal 75 nM, timepoint 60 min.
Setting [10] is: 5 min preincubation, read-out: hBChE IC50 ± SEM.
Where [11] appears, read: pre-incubation time varied (1, 5, 15, 30 or 60 min).

Chain of hBChE (P06276 29-602): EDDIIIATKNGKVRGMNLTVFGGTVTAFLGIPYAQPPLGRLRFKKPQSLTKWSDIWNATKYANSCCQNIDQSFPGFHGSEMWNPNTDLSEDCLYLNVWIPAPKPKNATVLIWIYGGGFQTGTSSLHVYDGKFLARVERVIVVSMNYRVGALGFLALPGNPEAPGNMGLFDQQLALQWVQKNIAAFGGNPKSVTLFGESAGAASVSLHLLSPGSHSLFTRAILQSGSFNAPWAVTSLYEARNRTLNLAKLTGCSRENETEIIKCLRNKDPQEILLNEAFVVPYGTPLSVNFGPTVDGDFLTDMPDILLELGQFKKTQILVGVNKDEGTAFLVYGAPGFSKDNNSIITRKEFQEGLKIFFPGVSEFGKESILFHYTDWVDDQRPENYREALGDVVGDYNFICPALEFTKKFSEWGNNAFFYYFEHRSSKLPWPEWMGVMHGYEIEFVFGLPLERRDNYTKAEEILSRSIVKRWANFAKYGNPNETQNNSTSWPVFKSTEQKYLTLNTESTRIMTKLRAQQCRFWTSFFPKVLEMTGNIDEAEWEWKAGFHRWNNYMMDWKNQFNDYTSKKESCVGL
Chain of hAChE (P22303 32-614): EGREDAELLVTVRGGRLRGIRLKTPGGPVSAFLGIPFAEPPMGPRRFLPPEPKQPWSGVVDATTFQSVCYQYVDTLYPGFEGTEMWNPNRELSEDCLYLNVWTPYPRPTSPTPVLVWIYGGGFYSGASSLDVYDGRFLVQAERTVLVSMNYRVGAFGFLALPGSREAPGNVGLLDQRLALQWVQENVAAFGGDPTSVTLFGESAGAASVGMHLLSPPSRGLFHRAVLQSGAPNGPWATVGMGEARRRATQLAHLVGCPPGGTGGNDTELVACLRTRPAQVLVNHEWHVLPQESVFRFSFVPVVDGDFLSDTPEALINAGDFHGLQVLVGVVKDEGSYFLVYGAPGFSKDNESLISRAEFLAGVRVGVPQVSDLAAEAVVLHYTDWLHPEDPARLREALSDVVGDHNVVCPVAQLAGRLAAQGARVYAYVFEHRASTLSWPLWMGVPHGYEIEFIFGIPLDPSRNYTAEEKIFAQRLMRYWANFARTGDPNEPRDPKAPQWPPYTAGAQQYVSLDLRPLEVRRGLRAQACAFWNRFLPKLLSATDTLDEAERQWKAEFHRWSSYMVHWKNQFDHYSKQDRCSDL

Regarding `CCC1(c2cnc[nH]2)Cc2ccccc2C1` [Compound 6, 4-(2-ethylindan-2-yl)-1H-imidazole], the concentration of analyte came to 9.816 nM in data set [1] (setting [6]), 15.911 nM in data set [1] (setting [7]), 29.071 nM in data set [1] (setting [8]) and 65.375 nM in data set [1] (setting [9]).
As a reminder, the IC50 is the point on the concentration scale where inhibition reaches its midpoint. As usually defined, the inhibition is the drop in the measured response relative to a control, in per cent. The low end stands for a response near the control, the high end for a response far below the control. For `CCC1(c2cn(C(=O)N(C)C)cn2)Cc2ccccc2C1` [Compound 7, 4-(2-Ethylindan-2-yl)-N,N-dimethyl-1H-imidazole-1-carboxamide], the “hAChE time-dependency observed: yes/no” value in data set [2] was determined as 30507 ± 6304 yes. Also, the IC50 in data set [2] (read-out: hAChE IC50 ± SEM) came to 30500 ± 6300 nM; in data set [5] (setting [10]), 12.6 ± 2 nM. Moreover, the inhibition at 1 µM in data set [3] was determined as 6%. The concentration of analyte is recorded as 74.477 nM in data set [1] (control plasma with 1 mM ethopropazine, nominal 75 nM 7, timepoint 1 min); 72.158 nM in data set [1] (control plasma with 1 mM ethopropazine, nominal 75 nM 7, timepoint 5 min); 71.131 nM in data set [1] (setting [6]); 66.508 nM in data set [1] (setting [7]); 55.665 nM in data set [1] (setting [8]); 22.431 nM in data set [1] (setting [9]). In data set [4], the non-enzymatic hydrolysis rate result is “several orders of magnitude slower”. Also, in data set [5], the “hBChE time-dependency observed: yes/no” value is listed as “yes”.
As to `CCC1(c2ncn(C(=O)N(C)C)n2)Cc2ccccc2C1` [Compound 16, 3-(2-Ethylindan-2-yl)-N,N-dimethyl-1H-1,2,4-triazole-1-carboxamide], the 50% inhibitory concentration (IC50) in data set [2] (read-out: hAChE IC50 ± SEM) worked out at 1980 ± 239 nM; in data set [5] (setting [10]), 4.12 ± 0.35 nM. For the same compound, the “hBChE time-dependency observed: yes/no” value in data set [5] is listed as “yes”.
In the case of `CCC1(c2nc[nH]n2)Cc2ccccc2C1` [Compound 15, 3-(2-Ethylindan-2-yl)-1H-1,2,4-triazole], in data set [2], the “hAChE IC50 ± SEM” value is recorded as “Not active (79.8 ± 7.0%)” and the “hAChE RA-residual activity” value is on record as “Not active (79.8 ± 7.0%)”. This compound also had an inhibition at 1 µM in data set [3] of 2.1%. Also, in data set [5] (5 min preincubation), the “hBChE IC50 ± SEM” value was “Not active” and the “hBChE RA-residual activity” value came to 95.9 ± 6.8%.
For the compound `CCN(CC)C(=O)n1cnc(C2(CC)Cc3ccccc3C2)c1` [Compound 8, N,N-diethyl-4-(2-ethylindan-2-yl)-1H-imidazole-1-carboxamide], in data set [2], the “hAChE IC50 ± SEM” value is on record as “Not active (66.8 ± 4.7%) no” and the “hAChE RA-residual activity” value is reported as “Not active (66.8 ± 4.7%) no”. The half-maximal inhibitory concentration (IC50) in data set [5] (setting [10]) was determined as 1460 ± 218 nM. In addition, in data set [5], the “hBChE time-dependency observed: yes/no” value is reported as “yes”.
As for `CCC1(c2cn(C(=O)N(C)Cc3ccccc3)cn2)Cc2ccccc2C1` [Compound 17, N-benzyl-4-(2-ethylindan-2-yl)-N-methyl-1H-imidazole-1-carboxamide], the “hAChE RA-residual activity” value in data set [2] was 46.4 ± 3.3% yes. Further, the half-maximal inhibitory concentration (IC50) in data set [5] (setting [10]) amounted to 95.7 ± 17.1 nM. The “hBChE time-dependency observed: yes/no” value in data set [5] is on record as “yes”.
Consider `CCC1(c2cn(C(=O)N3CCCCC3)cn2)Cc2ccccc2C1` [Compound 18, (4-(2-ethylindan-2-yl)-1H-imidazol-1-yl)(piperidin-1-yl)methanone], for which the 50% inhibitory concentration (IC50) stood at 5180 ± 1620 nM in data set [2] (read-out: hAChE IC50 ± SEM) and 4.8 ± 0.944 nM in data set [5] (setting [10]). In addition, the “hBChE time-dependency observed: yes/no” value in data set [5] is recorded as “yes”.
With `CCC1(c2cn[nH]n2)Cc2ccccc2C1` [Compound 13, 4-(2-Ethylindan-2-yl)-2H-1,2,3-triazole], in data set [2], the “hAChE IC50 ± SEM” value is given as “Not active (87.3 ± 7.5%)” and the “hAChE RA-residual activity” value was “Not active (87.3 ± 7.5%)”. Further, in data set [3], at 1 µM the inhibition was 6.1%. In data set [5] (5 min preincubation), the “hBChE IC50 ± SEM” value is reported as “Not active” and the “hBChE RA-residual activity” value is 60.3 ± 1.0%.
`CCC1(c2cn(C(=O)N(C)C)c[n+]2C)Cc2ccccc2C1` [Compound 9, 1-(Dimethylcarbamoyl)-4-(2-ethylindan-2-yl)-3-methyl-1H-imidazol-3-ium trifluoromethanesulfonate] had an IC50 in data set [2] of 431 ± 113 nM. In addition, the “hAChE time-dependency observed: yes/no” value in data set [2] (setting [11]) is listed as “yes”. Further, in data set [5], the IC50 came to 4.18 ± 0.77 nM and the “hBChE time-dependency observed: yes/no” value is “yes”.
Consider `CCC1(c2cnn(C(=O)N(C)C)n2)Cc2ccccc2C1` [Compound 14, 4-(2-Ethylindan-2-yl)-N,N-dimethyl-2H-1,2,3-triazole-2-carboxamide], for which the “hAChE time-dependency observed: yes/no” value in data set [2] was 180.9 ± 35.5 yes. Also, the IC50 was 181 ± 35.5 nM in data set [2] (read-out: hAChE IC50 ± SEM) and 2.39 ± 0.63 nM in data set [5] (setting [10]). In data set [5], the “hBChE time-dependency observed: yes/no” value is listed as “yes”.
For the compound `[2H]C([2H])([2H])C([2H])([2H])C1(c2cn(C(=O)N(CC)CC)cn2)Cc2ccccc2C1` [Compound 21, N,N-diethyl-4-(2-(ethyl-d5)indan-2-yl)-1H-imidazole-1-carboxamide], the “hAChE RA-residual activity” value in data set [2] (5 min preincubation, mean ± standard deviation, test concentration not given) was 58.9 ± 2.3%. The “hAChE time-dependency observed: yes/no” value in data set [2] (setting [11]) is on record as “yes”. For the same compound, the IC50 in data set [5] (setting [10]) stood at 7830 ± 1320 nM. Further, the “hBChE time-dependency observed: yes/no” value in data set [5] is “yes”.
